Experimental data from ChEMBL document CHEMBL1201862, “PubChem BioAssay data set” (2004).
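48-hour exposure; five concentrations; linearly interpolated endpoints. Here, GI50 denotes the concentration required for 50% inhibition of growth.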 The source made the active and inactive calls. Cut-off read from the data, not from the text of the source: active = GI50 up to about 1.1 µM and inactive = higher.

Key:
Experiment in all cases: inhibition of tumour cell growth, NCI panel, 48 h
IGROV-1 = system: IGROV-1
NCI-H23 = system: NCI-H23
UACC-62 = system: UACC-62
SN12C = system: SN12C
UACC-257 = system: UACC-257
HCT-15 = system: HCT-15
M14 = system: M14
SK-MEL-2 = system: SK-MEL-2
HCT-116 = system: HCT-116
SF-268 = system: SF-268
COLO 205 = system: COLO 205
HCC 2998 = system: HCC 2998
EKVX = system: EKVX
SNB-75 = system: SNB-75
SNB-19 = system: SNB-19
A498 = system: A498

| Compound | GI50 (IGROV-1) | GI50 (NCI-H23) | GI50 (UACC-62) | GI50 (SN12C) | GI50 (UACC-257) | GI50 (HCT-15) | GI50 (M14) | GI50 (SK-MEL-2) | GI50 (HCT-116) | GI50 (SF-268) | GI50 (COLO 205) | GI50 (HCC 2998) | GI50 (EKVX) | GI50 (SNB-75) | GI50 (SNB-19) | GI50 (A498) |
| --- | --- | --- | --- | --- | --- | --- | --- | --- | --- | --- | --- | --- | --- | --- | --- | --- |
| Cc1ccc(NC(=O)C(=O)Cc2nc3ccccc3o2)c(C)c1 | > 100 µM (inactive) | > 100 µM (inactive) | > 100 µM (inactive) | > 100 µM (inactive) | > 100 µM (inactive) | > 100 µM | > 100 µM (inactive) | > 100 µM (inactive) | > 100 µM (inactive) | > 100 µM (inactive) | > 100 µM (inactive) | > 100 µM (inactive) | > 100 µM (inactive) | > 100 µM (inactive) | > 100 µM (inactive) |  |
| O=[PH](O)c1ccsc1 | > 100 µM (inactive) | > 100 µM (inactive) | > 100 µM (inactive) | > 100 µM (inactive) |  | > 100 µM | > 100 µM (inactive) |  | > 100 µM (inactive) | > 100 µM (inactive) | > 100 µM (inactive) |  | > 100 µM (inactive) |  |  | > 100 µM (inactive) |
| COc1cc(C(C#N)NNc2nc(C)cc(O)n2)cc(OC)c1OC (stereo unspecified) | > 100 µM (inactive) | > 100 µM (inactive) | > 100 µM (inactive) | > 100 µM (inactive) | > 100 µM (inactive) | > 100 µM | > 100 µM (inactive) | > 100 µM (inactive) | > 100 µM (inactive) | > 100 µM (inactive) | > 100 µM (inactive) |  |  | 37.2 µM (inactive) |  |  |
| COc1ccc(/C=C/CN(C)CCc2ccccc2)cc1OC | > 100 µM (inactive) | > 100 µM (inactive) | > 100 µM (inactive) | 66.1 µM (inactive) | 36.1 µM (inactive) | > 100 µM |  | > 100 µM (inactive) | 26.4 µM (inactive) | > 100 µM (inactive) | 52 µM (inactive) | 32.1 µM (inactive) | > 100 µM (inactive) | 25.9 µM (inactive) | > 100 µM (inactive) |  |
| CNC(=O)CN(CC(N)=O)C(=O)NC | > 100 µM (inactive) | > 100 µM (inactive) | > 100 µM (inactive) |  |  | > 100 µM | > 100 µM (inactive) | > 100 µM (inactive) |  | > 100 µM (inactive) | > 100 µM (inactive) | > 100 µM (inactive) | > 100 µM (inactive) | > 100 µM (inactive) | > 100 µM (inactive) | > 100 µM (inactive) |
| O=C(CCc1n[nH]c(=S)o1)Nc1cc(Cl)c(Cl)cc1Cl | 34.6 µM (inactive) | > 100 µM (inactive) | 21.9 µM (inactive) | > 100 µM (inactive) | > 100 µM (inactive) | 22.2 µM | 83.6 µM (inactive) |  | 15.9 µM (inactive) | 26.5 µM (inactive) | 31.8 µM (inactive) | > 100 µM (inactive) | 36.9 µM (inactive) | 89.1 µM (inactive) | > 100 µM (inactive) | 36.9 µM (inactive) |
| O=C1CCC2CCc3cccc4oc1c2c34 (stereo unspecified) | > 100 µM (inactive) | > 100 µM (inactive) | > 100 µM (inactive) | > 100 µM (inactive) | > 100 µM (inactive) | > 100 µM | > 100 µM (inactive) |  | > 100 µM (inactive) |  | > 100 µM (inactive) | > 100 µM (inactive) | 74.1 µM (inactive) | > 100 µM (inactive) | > 100 µM (inactive) | > 100 µM (inactive) |
| C=C1C(C(=O)O)C1C(=O)O (stereo unspecified) | > 100 µM (inactive) | > 100 µM (inactive) | > 100 µM (inactive) | > 100 µM (inactive) | > 100 µM (inactive) | > 100 µM | > 100 µM (inactive) | > 100 µM (inactive) | > 100 µM (inactive) | > 100 µM (inactive) |  | > 100 µM (inactive) | > 100 µM (inactive) | > 100 µM (inactive) | > 100 µM (inactive) | > 100 µM (inactive) |
| O=C(CN(c1ccccc1)c1ccccc1)n1nnc2ccccc21 | 52.4 µM (inactive) | 45.1 µM (inactive) | 41.3 µM (inactive) | 53 µM (inactive) | 41.4 µM (inactive) | 39.7 µM | 52.8 µM (inactive) | 30.6 µM (inactive) | 24.3 µM (inactive) | 28.4 µM (inactive) | 36.9 µM (inactive) | 49.8 µM (inactive) | 36 µM (inactive) | 27 µM (inactive) | 24.5 µM (inactive) |  |
| O=C1NCCS(=O)(=O)N2CCC[C@@H]12 | > 100 µM (inactive) | > 100 µM (inactive) | > 100 µM (inactive) | > 100 µM (inactive) | > 100 µM (inactive) | > 100 µM | > 100 µM (inactive) |  | > 100 µM (inactive) | > 100 µM (inactive) | > 100 µM (inactive) | > 100 µM (inactive) | > 100 µM (inactive) | > 100 µM (inactive) | > 100 µM (inactive) | > 100 µM (inactive) |
| O=C(O)CCSC(=O)Nc1cccc([N+](=O)[O-])c1 | 72.6 µM (inactive) | > 100 µM (inactive) |  | 94.6 µM (inactive) | > 100 µM (inactive) | 44.2 µM | > 100 µM (inactive) | > 100 µM (inactive) | > 100 µM (inactive) | 17 µM (inactive) | > 100 µM (inactive) | > 100 µM (inactive) | > 100 µM (inactive) | > 100 µM (inactive) | > 100 µM (inactive) | > 100 µM (inactive) |
| CCOc1ccc([Se][Se]c2ccc(OCC)cc2)cc1 | 94.4 µM (inactive) | 11.5 µM (inactive) | 95.7 µM (inactive) | > 100 µM (inactive) |  | 82.4 µM | > 100 µM (inactive) | > 100 µM (inactive) | 56.1 µM (inactive) | 70.1 µM (inactive) | > 100 µM (inactive) | > 100 µM (inactive) | > 100 µM (inactive) | 96.4 µM (inactive) | > 100 µM (inactive) |  |
| CCOC(=O)C1Sc2ccccc2N=C1C (stereo unspecified) | > 100 µM (inactive) | > 100 µM (inactive) |  | > 100 µM (inactive) | > 100 µM (inactive) | > 100 µM |  | > 100 µM (inactive) | > 100 µM (inactive) | > 100 µM (inactive) | > 100 µM (inactive) | > 100 µM (inactive) | > 100 µM (inactive) | > 100 µM (inactive) | > 100 µM (inactive) | > 100 µM (inactive) |
| COc1cc2c(cc1O)[C@H](C)C(c1ccccc1OC)O2 (stereo partly specified) | 5.24 µM (inactive) | 6.31 µM (inactive) | 3.33 µM (inactive) |  | 18.2 µM (inactive) | 3.34 µM | 3.45 µM (inactive) | 3.05 µM (inactive) | 3.86 µM (inactive) | 5.75 µM (inactive) | 6.97 µM (inactive) | 12.1 µM (inactive) | 6.87 µM (inactive) | 2.49 µM (inactive) | 3.98 µM (inactive) | 4.49 µM (inactive) |
| CCCN(CCC)C(=O)Cc1c2n(c3ccccc13)CCCc1ccccc1-2 |  | 13 µM (inactive) | 11 µM (inactive) | 15.5 µM (inactive) | 13.9 µM (inactive) | 11.6 µM | 13.5 µM (inactive) | 13.1 µM (inactive) | 13.5 µM (inactive) | 15.1 µM (inactive) | 15.5 µM (inactive) | 13.2 µM (inactive) | 15.1 µM (inactive) | 11.9 µM (inactive) | 14.6 µM (inactive) |  |
